pEC50: −log10 of the molar value. Values joined by “and” are separate entries in the source; they are usually repeats but may differ in a detail not shown here. Identical values can stand only once. Counter-ions that a name gives are not always drawn. Like-named read-outs stand apart in the source and are kept apart here.
Key:
[1] = test system: p53RE-bla HCT-116 cells; assay: cells; settings: Homo sapiens
[2] = test system: p53 signaling (p53RE-bla HCT-116 cells); assay: cells; type: cell-based
[3] = test system: p53RE-bla HCT-116 cells
[4] = test system: p53 signaling (p53RE-bla HCT-116 cells); settings: for pEC50: read-out: p53 activation EC50, RLM
[5] = test system: p53 signaling (p53RE-bla HCT-116 cells)
[6] = test system: p53 signaling (p53RE-bla HCT-116 cells); assay: cells; settings: Homo sapiens; for Emax: HCT-116, read-out: efficacy
[7] = test system: p53 signaling (p53RE-bla HCT-116 cells); assay: cells; type: cell-based; settings: Homo sapiens; for pEC50: HCT-116, 0.5 h
[8] = test system: p53 signaling (p53RE-bla HCT-116 cells); assay: cells; type: cell-based; settings: Homo sapiens; for pEC50: HCT-116
[9] = test system: p53 signaling (p53RE-bla HCT-116 cells); assay: cells; settings: Homo sapiens, HCT-116, read-out: p53 activation EC50, HLM
[10] = HCT-116, read-out: EC50, viability, cherry pick confirmation
[11] = Homo sapiens, HCT-116, read-out: EC50, p53 activation, cherry pick confirmation
[12] = Homo sapiens, HCT-116, read-out: Efficacy, p53 activation, cherry pick confirmation
[13] = HCT-116, read-out: Viability EC50, cherry pick confirmation
[14] = Homo sapiens, HCT-116, read-out: p53 activation EC50, cherry pick confirmation
[15] = Homo sapiens, HCT-116, read-out: p53 activation EC50, primary screening
[16] = Homo sapiens, HCT-116, read-out: p53 activation efficacy, cherry pick confirmation
[17] = Homo sapiens, HCT-116, read-out: p53 activation efficacy, primary screening
[18] = HCT-116, read-out: EC50, viability, primary screening
[19] = Homo sapiens, HCT-116, read-out: EC50, p53 activation, primary screening
[20] = Homo sapiens, HCT-116, read-out: Efficacy, p53 activation, primary screening
[21] = read-out: EC50, viability, primary screening
[22] = HCT-116, read-out: p53 activation EC50, RLM

Structure (SMILES) | EC50, p53 activation, cherry pick confirmation [4] | Efficacy, p53 activation, cherry pick confirmation [4] | EC50, p53 activation, cherry pick confirmation [5] | EC50, p53 activation, primary screening [5] | Efficacy, p53 activation, cherry pick confirmation [5] | Efficacy, p53 activation, primary screening [5] | pEC50 [1, 13] | pEC50 [2, 14] | pEC50 [2, 15] | Emax [2, 16] [%] | Emax [2, 17] [%] | Viability EC50, cherry pick confirmation [3] | p53 activation EC50, cherry pick confirmation [4] | p53 activation EC50, primary screening [4] | p53 activation efficacy, cherry pick confirmation [4] | p53 activation efficacy, primary screening [4] | p53 activation EC50, cherry pick confirmation [5] | p53 activation EC50, primary screening [5] | p53 activation efficacy, cherry pick confirmation [5] | p53 activation efficacy, primary screening [5] | also measured
CO[C@@]12[C@H](COC(N)=O)C3=C(C(=O)C(C)=C(N)C3=O)N1C[C@@H]1N[C@@H]12 [Mitomycin C] | inactive | inactive | inactive | inactive | inactive | inactive |  |  |  |  |  |  |  |  |  |  |  |  |  |  | pEC50 [1, 10]: 4.75; pEC50 [2, 11]: 5.67; Emax [2, 12]: 134%; EC50, viability, cherry pick confirmation [3]: inactive; EC50, viability, primary screening [3]: inactive; Efficacy, viability, primary screening [3]: inactive
Oc1c(Cl)cc(Cl)c(Cl)c1Cc1c(O)c(Cl)cc(Cl)c1Cl [Hexachlorophene] |  |  |  |  |  |  | 5.65 | 4.75 | 4.70 | 99.6 | 45.4 | inactive | inactive | inactive | inactive | inactive | inactive | inactive | inactive | inactive | 
CN(C)c1ccc2nc3ccc(=[N+](C)C)cc-3sc2c1 [Methylene blue] |  |  |  |  |  |  | 4.80 | 4.81 | 4.99 | 53.2 | 53.4 | inactive | inactive | inactive | inactive | inactive | inactive | inactive | inactive | inactive | Viability EC50, primary screening [3]: inactive; Viability efficacy, primary screening [3]: inactive
CC(C)=CCC1=C(O)C(=O)c2ccccc2C1=O [Lapachol] |  |  |  |  |  |  |  |  |  |  |  |  |  |  |  |  |  |  |  |  | pEC50 ([1]; HCT-116, read-out: Viability EC50): 5.86; p53 activation efficacy [2]: 104.839; pEC50 ([2]; read-out: p53 activation EC50): 5.47; Viability EC50 [3]: inactive; p53 activation EC50 [4]: inactive; p53 activation EC50 [5]: inactive
CC(C)(c1cc(Br)c(O)c(Br)c1)c1cc(Br)c(O)c(Br)c1 [3,3',5,5'-Tetrabromobisphenol A] | inactive | inactive | inactive | inactive | inactive | inactive |  |  |  |  |  |  |  |  |  |  |  |  |  |  | pEC50 [1, 18]: 4.47; EC50, p53 activation, cherry pick confirmation [2]: inactive; Efficacy, p53 activation, cherry pick confirmation [2]: inactive; pEC50 [2, 19]: 4.52; Emax [2, 20]: 91.5%; pEC50 [3, 21]: 4.46 and 4.34; EC50, p53 activation, primary screening [4]: inactive; Efficacy, p53 activation, primary screening [4]: inactive
CC1=CC(=O)c2ccccc2C1=O [Menadione] | inactive | inactive | inactive | inactive | inactive | inactive |  |  |  |  |  |  |  |  |  |  |  |  |  |  | pEC50 [1, 10]: 4.44; pEC50 [1, 18]: 4.29; pEC50 [2, 11]: 4.79; pEC50 [2, 19]: 4.39; Emax [2, 12]: 33.9%; Emax [2, 20]: 31.2%; pEC50 ([3]; read-out: EC50, viability, cherry pick confirmation): 4.37; pEC50 [3, 21]: 4.37 and 4.33; EC50, p53 activation, primary screening [4]: inactive; Efficacy, p53 activation, primary screening [4]: inactive
CCOC(=O)C1(c2ccccc2)CCN(CCC(C#N)(c2ccccc2)c2ccccc2)CC1 [Diphenoxylate hydrochloride] |  |  |  |  |  |  | 5.50 | 5.08 | 5.16 | 152 | 77.1 | inactive | inactive | inactive | inactive | inactive | inactive | inactive | inactive | inactive | Viability EC50, primary screening [3]: inactive; Viability efficacy, primary screening [3]: inactive
Oc1ccc(C(c2ccc(O)cc2)(C(F)(F)F)C(F)(F)F)cc1 [Bisphenol AF] | inactive | inactive | inactive | inactive | inactive | inactive |  |  |  |  |  |  |  |  |  |  |  |  |  |  | pEC50 [1, 18]: 4.32; pEC50 [2, 11]: 4.50; pEC50 [2, 19]: 4.54; Emax [2, 12]: 55.4%; Emax [2, 20]: 33.6%; EC50, viability, cherry pick confirmation [3]: inactive; EC50, viability, primary screening [3]: inactive; Efficacy, viability, cherry pick confirmation [3]: inactive; pEC50 [3, 21]: 4.32; EC50, p53 activation, primary screening [4]: inactive; Efficacy, p53 activation, primary screening [4]: inactive
COc1cc(/C=C/C(=O)CC(=O)/C=C/c2ccc(O)c(OC)c2)ccc1O [Curcumin] |  |  |  |  |  |  | 4.79 |  | 4.81 |  | 65.1 | inactive | inactive | inactive | inactive | inactive | inactive | inactive | inactive | inactive | pEC50 ([1]; HCT-116, read-out: Viability EC50, primary screening): 4.50; p53 activation EC50, cherry pick confirmation [2]: inactive; p53 activation efficacy, cherry pick confirmation [2]: inactive; pEC50 ([3]; read-out: Viability EC50, primary screening): 4.42 and 4.33
CC(C)(C)[C@H]1CC[C@H](CC2=C(O)C(=O)c3ccccc3C2=O)CC1 [Buparvaquone] |  |  |  |  |  |  | 5.70 |  | 5.85 |  | 33.8 | inactive | inactive | inactive | inactive | inactive | inactive | inactive | inactive | inactive | p53 activation EC50, cherry pick confirmation [2]: inactive; p53 activation efficacy, cherry pick confirmation [2]: inactive; Viability EC50, primary screening [3]: inactive; Viability efficacy, primary screening [3]: inactive
CCOP(=S)(OCC)O/N=C(\C#N)c1ccccc1 [Phoxim] |  |  |  |  |  |  |  |  |  |  |  |  |  |  |  |  |  |  |  |  | pEC50 ([6]; HCT-116): 5.35; Emax [6]: 34.4%; pEC50 [6, 22]: 5.52; pEC50 [7]: 5.27; Emax ([7]; HCT-116, read-out: efficacy): 43.5%; pEC50 [8]: 5.28; Emax ([8]; HCT-116, read-out: efficacy): 42.2%; p53 activation EC50, No MS [2]: inactive; p53 activation Efficacy, No MS [2]: inactive; pEC50 [9]: 5.66; Viability EC50, HLM [3]: inactive; Viability EC50, No MS [3]: inactive; Viability EC50, RLM [3]: inactive; Viability Efficacy, HLM [3]: inactive; Viability Efficacy, No MS [3]: inactive; Viability Efficacy, RLM [3]: inactive; pEC50 [4]: 5.23; p53 activation EC50, HLM [5]: inactive
O=Nc1ccc(Nc2ccccc2)cc1 [4-Nitrosodiphenylamine] |  |  |  |  |  |  | 4.39 | 4.56 | 4.32 | 84.9 | 61.2 | inactive | inactive | inactive | inactive | inactive | inactive | inactive | inactive | inactive | Viability EC50, primary screening [3]: inactive; Viability efficacy, primary screening [3]: inactive; pEC50 ([3]; read-out: Viability EC50, cherry pick confirmation): 4.44
COP(N)(=O)SC (centres unmarked) [Methamidophos] |  |  |  |  |  |  |  |  |  |  |  |  |  |  |  |  |  |  |  |  | pEC50 ([6]; HCT-116): 4.94; Emax [6]: 48.9%; pEC50 [6, 22]: 4.95; pEC50 [7]: 5.22; pEC50 [8]: 5.01; p53 activation EC50, No MS [2]: inactive; p53 activation Efficacy, No MS [2]: inactive; pEC50 [9]: 5.69; Viability EC50, HLM [3]: inactive; Viability EC50, No MS [3]: inactive; Viability EC50, RLM [3]: inactive; Viability Efficacy, HLM [3]: inactive; Viability Efficacy, No MS [3]: inactive; Viability Efficacy, RLM [3]: inactive; pEC50 [4]: 4.86; p53 activation EC50, HLM [5]: inactive

Source: publication PMC9151520 (Archives of Toxicology, 2022)
